“Also recorded” adds a separate entry of the source. Residues, ends and D or L forms follow the SMILES beside them. *: point of attachment. Cbz = O=C(OCc1ccccc1)*; OtBu = CC(C)(C)O*
Columns and labels:
human Nav1.5 = biological target: T1, human Nav1.5 (Homo sapiens, UniProt Q14524); assay: Whole-cell patch-clamp, HEK293 cells stably expressing human Nav1.5; format: cell-based; details: for Activation / Long-term inactivation, 2nd Pulse / Long-term inactivation, 3rd Pulse / Long-term inactivation, 4th Pulse / Peak Density / Steady state inactivation / Tau (τ): HEK293 Nav1.5
T1 construct: expressed in transfected cells; host or cells: HEK293 stably expressing human Nav1.5
T1 sequence (Q14524 whole entry): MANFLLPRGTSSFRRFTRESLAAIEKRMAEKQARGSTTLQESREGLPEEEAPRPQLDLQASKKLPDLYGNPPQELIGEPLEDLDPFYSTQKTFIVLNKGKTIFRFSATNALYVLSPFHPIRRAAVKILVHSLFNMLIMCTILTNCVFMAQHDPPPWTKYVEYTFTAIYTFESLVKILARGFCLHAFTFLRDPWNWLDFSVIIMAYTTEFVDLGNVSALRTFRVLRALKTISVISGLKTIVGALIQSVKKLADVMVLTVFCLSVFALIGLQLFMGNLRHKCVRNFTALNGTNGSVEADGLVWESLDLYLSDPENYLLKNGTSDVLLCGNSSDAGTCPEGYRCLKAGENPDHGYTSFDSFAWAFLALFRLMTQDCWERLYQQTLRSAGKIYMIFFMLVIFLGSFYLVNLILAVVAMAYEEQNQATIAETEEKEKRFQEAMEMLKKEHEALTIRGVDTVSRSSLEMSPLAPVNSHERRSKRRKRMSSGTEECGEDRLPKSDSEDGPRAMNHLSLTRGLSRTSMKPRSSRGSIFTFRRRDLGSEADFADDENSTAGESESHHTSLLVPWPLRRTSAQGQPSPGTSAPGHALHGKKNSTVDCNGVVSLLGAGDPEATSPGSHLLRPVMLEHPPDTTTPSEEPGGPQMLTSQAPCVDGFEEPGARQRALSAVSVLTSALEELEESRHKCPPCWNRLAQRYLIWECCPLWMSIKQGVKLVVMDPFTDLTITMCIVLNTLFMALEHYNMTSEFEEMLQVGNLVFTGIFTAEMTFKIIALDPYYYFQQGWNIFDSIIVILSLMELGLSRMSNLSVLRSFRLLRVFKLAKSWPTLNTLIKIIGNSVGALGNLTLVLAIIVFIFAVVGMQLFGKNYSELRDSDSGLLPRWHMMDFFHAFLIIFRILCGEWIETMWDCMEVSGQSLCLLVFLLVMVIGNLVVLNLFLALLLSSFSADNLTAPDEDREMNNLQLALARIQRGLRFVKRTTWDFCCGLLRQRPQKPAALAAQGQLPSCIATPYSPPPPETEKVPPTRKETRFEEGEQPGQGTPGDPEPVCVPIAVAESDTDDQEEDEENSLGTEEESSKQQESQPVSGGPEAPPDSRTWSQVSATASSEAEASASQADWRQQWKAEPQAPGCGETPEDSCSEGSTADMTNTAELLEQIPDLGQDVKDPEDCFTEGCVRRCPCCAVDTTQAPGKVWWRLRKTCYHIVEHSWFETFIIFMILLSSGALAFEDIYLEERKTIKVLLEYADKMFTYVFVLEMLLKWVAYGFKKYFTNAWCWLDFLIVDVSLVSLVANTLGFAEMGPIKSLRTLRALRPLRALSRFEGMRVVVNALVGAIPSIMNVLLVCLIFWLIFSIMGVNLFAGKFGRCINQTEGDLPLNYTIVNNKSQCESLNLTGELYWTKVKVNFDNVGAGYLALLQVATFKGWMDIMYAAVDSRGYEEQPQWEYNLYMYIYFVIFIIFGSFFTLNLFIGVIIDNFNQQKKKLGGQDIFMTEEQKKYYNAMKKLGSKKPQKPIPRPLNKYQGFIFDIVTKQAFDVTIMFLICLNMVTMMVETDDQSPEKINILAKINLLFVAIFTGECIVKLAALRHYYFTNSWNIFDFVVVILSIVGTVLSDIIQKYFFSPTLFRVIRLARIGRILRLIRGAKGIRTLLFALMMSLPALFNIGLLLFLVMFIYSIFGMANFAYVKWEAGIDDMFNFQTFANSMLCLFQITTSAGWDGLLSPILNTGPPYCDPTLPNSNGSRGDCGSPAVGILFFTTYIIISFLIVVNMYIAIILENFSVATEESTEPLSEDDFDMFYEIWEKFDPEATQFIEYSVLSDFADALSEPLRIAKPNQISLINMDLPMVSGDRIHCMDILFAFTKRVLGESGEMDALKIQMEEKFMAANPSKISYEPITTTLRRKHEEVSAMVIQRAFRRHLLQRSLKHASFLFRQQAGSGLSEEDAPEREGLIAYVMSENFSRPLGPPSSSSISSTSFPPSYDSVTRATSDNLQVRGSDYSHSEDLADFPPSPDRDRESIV
Procedure: Whole-cell patch clamp electrophysiology
HEK293-Nav1.7 cells, HEK293 stably expressing human Nav1.6 (HEK-Nav1.6), HEK293 stably expressing human Nav1.5 (HEK-Nav1.5), human hIPSC-derived sensory neurons (RealDRGTM from Anatomic Incorporated 1020F1-1M) and donor-derived DRG neurons were plated at low density on glass coverslips and processed for whole-cell patch clamp electrophysiology in voltage-clamp and/or current clamp mode. Whole-cell patch electrophysiological experiments were conducted following previously published studies (26). Current densities were obtained by dividing INa amplitude by membrane capacitance. Current –voltage relationships were generated by plotting current density as a function of the […]. Conductance (G Na) was calculated by the […]
where INa is the current amplitude at voltage Vm, and Erev is the Na+ reversal potential.
Activation curves were derived by plotting normalized GNa as a function of test potential and fitted using […]
Where GNa,Max is the maximum conductance, Va is the membrane potential of half-maximal activation, Em is the membrane voltage and k is the slope factor. For steady -state inactivation, normalized current amplitude (INa/INa,Max) at the test potential was plotted as a function of prepulse potential (Vm) and fitted using the […]
Where Vh is the potential of half-maximal inactivation, E m is the membrane voltage, and k is the slope factor.
Transient INa inactivation decay was estimated with the standard exponential equation. Inactivation time constant (tau, τ) was fitted with the following equation: […]
where I(t) is the amplitude of the current at time t and Iss is the steady-state current during a single voltage-step.
The goodness of fitting was determined by correlation coefficient (R), and the cutoff of R was set at 0.85. To observe effects on long-term inactivation (LTI), a four-step protocol was employed during which cells were subjected to four 0 mV, 20 ms depolarization pulses separated by −90 mV, 40 ms recovery intervals. To control for various cell sizes, the current densities were calculated by dividing INa peak current amplitude/membrane capacitance (Cm). To represent the fraction of channels entering into LTI, the peak INa observed during depolarization cycles 2-4 was normalized to the peak INa observed during depolarization cycle 1 (INa/INa,Cycle 1) and plotted as a function of the depolarization cycle.
The cumulative (frequency-dependent) use-dependency was determined by applying 20 pulses with a depolarization to −10 mV (50 ms duration) and 50 ms recovery intervals with a train of 20 pulses at 10 Hz from a holding potential at -70 mV. The current pulses were normalized to the first reco rded pulse and the currents at the 2nd to 20th pulses were compared. The same train was used to record use-dependency at various frequencies […]
The rate of recovery from inactivation was recorded at -80 mV with a standard repriming voltage protocol.
The cells were prepulsed to -20 mV for 20 ms to inactivate all currents, then driven back to the recovery potential (Vrec) for increasing recovery durations before the test pulse to 0 mV. The maximum pulse rate was 0.5 Hz. The […]
follows previous publications (16). The time constants were estimated from single exponential decay to time courses measured at recovery potentials ranging from -140 to -60 mV with the protocol as mentioned above.
Electrophysiological Recordings
HEK293 cells: Electrophysiological recordings in HEK293 stably expressing Nav1.7 (HEK-Nav1.7), Nav1.5 (HEK-Nav1.5) or Nav1.6 (HEK-Nav1.6) were performed at room temperature using a MultiClamp 700B or an Axopatch 200B amplifier (Molecular Devices) after incubating coverslips for 60 minutes either with 0.1% DMSO or 50 μM PW164 or ZL192 in the extracellular solution. The composition of recording solutions consisted of the […]
following salts: extracellular (mM): 140 NaCl, 3 KCl, 1 MgCl2, 1 CaCl2, 10 HEPES, 10 glucose, pH 7.3; […]
intracellular (mM): 130 CH3O3 SCs, 1 EGTA, 10 NaCl, 10 HEPES, pH 7.3. […]

[1] = system: FGF13 and Nav1.7 colocalization in hIPSC-derived sensory neurons; assay: Immunocytochemistry, FGF13 and Nav1.7 colocalization in RealDRG; format: cell-based, human; set-up: Figure S6C, Mean: unit not given here; details: for Figure S6C, Mean: Capsaicin + PW164, N 48
Procedure: After treatment, coverslips containing hIPSC-derived sensory neurons were fixed with 4% PFA/4% sucrose for 15 minutes, permeabilized for 5 minutes using 0.1% Triton X-100 in PBS and blocked with 10% Normal Goat Serum (ThermoFisher Scientific) for 30 minutes. Cells were stained using primary antibodies ms IgG1 Nav1.7 […]
Tubulin (Abcam, catalog # ab18207; 1:2000) overnight at 4∘C in 3% BSA. Isotype specific secondary antibodies ms IgG1 Alexa 568 (Life Technologies, catalog # A-21124; 1:200), ms IgG2a Alexa 647 (Life Technologies, […]
applied for 2 hours. After washing, cell membranes were labeled using CellBrite Cytoplasmic Membrane Dye (Biotium) according to manufacturer directions. After final washing, coverslips were mounted using ProLong Gold Antifade Mountant (ThermoFisher). hIPSC-derived sensory neurons were fixed at day 14 in buffered formalin (10 wt%/vol%, Fisher Scientific 23-305-510) for 10 minutes, permeabilized in DPBS plus Triton X-100 (0.2 vol%/vol%, MilliporeSigma, T8787-100ML), blocked in DPBS plus bovine serum albumin (1 wt%/vol%, MilliporeSigma A3059-100G) and Tween-20 (0.1 vol% MilliporeSigma P1379) for 2 hours, and incubated with primary antibodies overnight. Cultures were washed twice with blocking solution and incubated 1 hour with secondary antibodies. 4′,6-diamidino-2-phenylindole dilactate (DAPI, Thermo Fisher D3571) was added for 10 minutes before washing three times in DPBS. Antibodies used include: TUJ1 (1:250, MilliporeSigma MAB1637), […]
and Alexa Fluor 555 Donkey anti-Rabbit (1:500, Thermo Fisher Scientific A-31572). Negative controls included

Structure (SMILES): COC(=O)[C@@H](NC(=O)[C@H](CCC(=O)OC(C)(C)C)NC(=O)[C@H](CC(C)C)NC(=O)[C@@H]1CCCN1C(=O)OCc1ccccc1)C(C)C [PW164] (Cbz-PLE(OtBu)V-OMe)
- Activation (human Nav1.5; FGF13-GFP + PW164): −37.38 ± 2.1 mV
- Long-term inactivation, 2nd Pulse (human Nav1.5; FGF13-GFP + PW164): −89.1 ± 1.71 % maximal Na+ current
- Long-term inactivation, 3rd Pulse (human Nav1.5; FGF13-GFP + PW164): −86.58 ± 1.69 % maximal Na+ current
- Long-term inactivation, 4th Pulse (human Nav1.5; FGF13-GFP + PW164): −84.72 ± 1.83 % maximal Na+ current
- Peak Density (human Nav1.5; FGF13-GFP + PW164): −203.0 ± 15.6 pA/pF
- Steady state inactivation (human Nav1.5; FGF13-GFP + PW164): −75.9 ± 2.1 mV
- Tau (τ) (human Nav1.5; FGF13-GFP + PW164): 0.90 ± 0.04 ms
- Activation (human Nav1.5; GFP + PW164): −38.11 ± 1.8 mV
- Long-term inactivation, 2nd Pulse (human Nav1.5; GFP + PW164): −91.7 ± 1.27 % maximal Na+ current
- Long-term inactivation, 3rd Pulse (human Nav1.5; GFP + PW164): −85.98 ± 2.18 % maximal Na+ current
- Long-term inactivation, 4th Pulse (human Nav1.5; GFP + PW164): −84.62 ± 2.28 % maximal Na+ current
- Peak Density (human Nav1.5; GFP + PW164): −314.9 ± 17.9 pA/pF
- Steady state inactivation (human Nav1.5; GFP + PW164): −82.7 ± 1.5 mV
- Tau (τ) (human Nav1.5; GFP + PW164): 1.12 ± 0.07 ms
- activity on Nav1.5 currents (human Nav1.5; Nav1.5-expressing HEK293 cells alone or with FGF13-1b or FGF13-1a): inactive
- Figure S6C, Mean ([1]; Distance 7.1166 microns): 361.193
- Figure S6C, Mean ([1]; Distance 7.2484 microns): 608.58
- Figure S6C, Mean ([1]; Distance 7.3801 microns): 960.938
- Figure S6C, Mean ([1]; Distance 7.5119 microns): 1312.68
- Figure S6C, Mean ([1]; Distance 7.6437 microns): 1599.77
- Figure S6C, Mean ([1]; Distance 7.7755 microns): 1799.6
- Figure S6C, Mean ([1]; Distance 7.9073 microns): 1927.38
- Figure S6C, Mean ([1]; Distance 8.0391 microns): 1925.95
- Figure S6C, Mean ([1]; Distance 8.1709 microns): 1887.37
- Figure S6C, Mean ([1]; Distance 8.3027 microns): 1816.83
- Figure S6C, Mean ([1]; Distance 8.4344 microns): 1764.58
- Figure S6C, Mean ([1]; Distance 8.5662 microns): 1693.16
- Figure S6C, Mean ([1]; Distance 8.698 microns): 1596.57
- Figure S6C, Mean ([1]; Distance 8.8298 microns): 1545.56
- Figure S6C, Mean ([1]; Distance 8.9616 microns): 1561.89
- Figure S6C, Mean ([1]; Distance 9.0934 microns): 1608.37
- colocalization of FGF13 and Nav1.7 after capsaicin ([1]; RealDRG, capsaicin + PW164): reduced; also recorded: reverses

— article PMC12259270, “Sensory neuron–expressed FGF13 controls nociceptive signaling in diabetic neuropathy models” (The Journal of Clinical Investigation, 2025)
